Measured values from US20040082623A1, “Fmoc-l-leucine and derivatives thereof as ppar-gamma agonists” (priority 2003, published 2004).

Legend:
PPARγ2 [1] = molecular target: T1, PPARγ2 (Homo sapiens, UniProt P37231); test: Transient transfection, PPARγ2 reporter in RK13 cells; type: cell-based; design: a construct containing the entire cDNA of the human PPARγ2 (hPPARγ2); expressed in transfected cells; host or cells: Hep G2, RK13 or CV1 cells; details: RK13 cells, 10^−5 M added
T1 sequence (P37231 1-505): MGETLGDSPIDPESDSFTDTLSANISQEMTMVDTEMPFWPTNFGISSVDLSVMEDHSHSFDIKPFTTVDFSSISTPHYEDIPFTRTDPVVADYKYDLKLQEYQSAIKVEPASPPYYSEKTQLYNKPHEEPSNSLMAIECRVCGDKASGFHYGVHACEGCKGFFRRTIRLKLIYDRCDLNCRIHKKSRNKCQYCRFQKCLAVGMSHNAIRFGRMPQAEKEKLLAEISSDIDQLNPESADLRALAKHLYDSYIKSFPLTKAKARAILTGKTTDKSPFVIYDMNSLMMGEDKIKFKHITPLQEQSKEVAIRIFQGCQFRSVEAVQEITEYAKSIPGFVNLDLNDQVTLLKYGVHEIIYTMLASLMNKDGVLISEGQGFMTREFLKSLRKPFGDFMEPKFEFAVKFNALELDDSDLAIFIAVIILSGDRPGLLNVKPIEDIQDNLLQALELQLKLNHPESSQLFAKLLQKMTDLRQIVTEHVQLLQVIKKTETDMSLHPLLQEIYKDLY
Description: (§1) RK13 cells (A and D), CV1 cells (B) or Hep G2 cells (C) were co-transfected with an expression vector for PPARγ2 (0.1 μg/well), pGL3-(Jwt)3TKLuc reported construct (0.5 μg/well), and pCMV-βGal (0.5 μg/well), as a control of transfection efficiency (0.5 μg/well). They were then grown during 24 h in the presence or absence of indicated compound. Activation is expressed as relative luciferase activity/β ? galactosidase activity. Each point was performed in triplicate, and each figure i ? representative of four independent experiments.
(§2) The CV1, RK-13, and Hep G2 cell lines were obtained from ATCC (Rockville, Md.). Cells were maintained in Dulbecco's modified Eagle's minimal essential medium (DMEM) supplemented with 10% fetal calf serum (FCS), L-glutamine, and antibiotics. Transfections with chloramphenicol acetyltransferase (CAT) or luciferase (luc.) reporter constructs were carried out exactly as described previously (Schoonjans et al., 1996). The pGL3-(Jwt)3TKLuc and the pGL3-(Jwt)3TKCAT reporter constructs contain both three tandem repeats of the J site of the apolipoprotein A-II promoter cloned upstream of the herpes simplex virus thymidine kinase (TK) promoter and the luciferase or the CAT reporter genes respectively (Vu-Dac et al., 1995). The following expression vectors were used; pSG5-hPPARγ2, a construct containing the entire cDNA of the human PPARγ2 (hPPARγ2) (Fajas et al., 1997); pSG5-mPPARα (Isseman et al., 1993); and pCMV-βGal, as a control of transfection efficiency.

PPARγ2 [2] = molecular target: T1, PPARγ2; test: Transient transfection, PPARγ2 reporter (luciferase/β-galactosidase) in Hep G2 cells; type: cell-based; design: a construct containing the entire cDNA of the human PPARγ2 (hPPARγ2); expressed in transfected cells; host or cells: Hep G2; details: HepG2 cells, pSG5-hPPARγ2, 24 h, F-L-leu at 10^−5 M
Description: Hep G2 cells were co-transfected with an expression vector for PPARγ2 (0.1 μg/well), pGL3-(Jwt)3TKLuc reporter construct (0.5 μg/well), and pCMV-βGal (0.5 μg/well), as a control of transfection efficiency (0.5 μg/well). The were then grown during 24 h in the presence or absence of indicated compound Activation is expressed as relative luciferase activity/β-galactosidase activity. Each point was performed in triplicate. This figure is representative of three independent experiments.
as §1, §2

db/db mice = details: db/db

Row | modification of PPARγ activity when added to a saturating concentration of rosiglitazone (PPARγ2 [1]) | PPARγ activation (relative luciferase activity/β-galactosidase activity) (PPARγ2 [2]) | PPARγ activation (relative luciferase activity/β-galactosidase activity) (PPARγ2 [2]; listed as FMOC substituted L-tyrosine derivative) | SMILES | maximal glycemia in IPGTT (db/db mice; 10 mg/kg/day i.p., 7 days, DMSO control 500) [mg/dL] | body weight vs control mice (db/db mice; 10 mg/kg/day, 8 days) | fasting serum insulin levels (mean) (db/db mice; 7 days treatment, DMSO group 180) [μUI/mL]
1 | No significant modification | no significant PPARγ activation |  | CC(C)C[C@@H](NC(=O)OCC1c2ccccc2-c2ccccc21)C(=O)O [FMOC-D-leucine, reference compound] |  |  | 
2 | No significant modification | devoid of | did not activate PPARγ | O=C(N[C@@H](Cc1ccc(O)cc1)C(=O)O)OCC1c2ccccc2-c2ccccc21 [FMOC-L-tyrosine, reference compound] |  |  | 
3 |  |  |  | CN(CCOc1ccc(CC2SC(=O)NC2=O)cc1)c1ccccn1 (centres unmarked) [rosiglitazone, reference compound] | 350 | tendency to increase body weight | 70
